Measured values taken from the supplement of paper PMC10307832.

What was measured:
Assay in all cases: relative viability (nuclei count vs DMSO), 5 days (fraction); higher = more cells survive
ALW-II-49-7 + Decitabine = compound: Cc1ccc(C(=O)Nc2cccc(C(F)(F)F)c2)cc1Nc1cncc(C(N)=O)c1 [ALW-II-49-7] + Nc1ncn([C@H]2C[C@H](O)[C@@H](CO)O2)c(=O)n1 [Decitabine] (partner 2 µM)
In short: (§1)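 Lung cancer cell lines were pin-tool dosed in 1536-well plates on the day after seeding, with either a lone drug or a fixed anchor-drug dose plus five library-drug doses (not always all listed) in √10 steps. Nuclei were counted on 4× images after 5 days. Relative viability is the ratio of treated-well to vehicle-well nuclei counts, with each value a median of duplicate plates.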

ALW-II-49-7 + Trametinib = compound: Cc1ccc(C(=O)Nc2cccc(C(F)(F)F)c2)cc1Nc1cncc(C(N)=O)c1 [ALW-II-49-7] + CC(=O)Nc1cccc(-n2c(=O)n(C3CC3)c(=O)c3c(Nc4ccc(I)cc4F)n(C)c(=O)c(C)c32)c1 [Trametinib] (partner 0.02 µM)
In short: as §1

Dasatinib + Palbociclib = compound: Cc1nc(Nc2ncc(C(=O)Nc3c(C)cccc3Cl)s2)cc(N2CCN(CCO)CC2)n1 [Dasatinib] + CC(=O)c1c(C)c2cnc(Nc3ccc(N4CCNCC4)cn3)nc2n(C2CCCC2)c1=O [Palbociclib] (partner 0.5 µM)
In short: as §1

Dasatinib + OSI-027 = compound: Cc1nc(Nc2ncc(C(=O)Nc3c(C)cccc3Cl)s2)cc(N2CCN(CCO)CC2)n1 [Dasatinib] + COc1cccc2cc(-c3nc([C@H]4CC[C@H](C(=O)O)CC4)n4ncnc(N)c34)[nH]c12 [OSI-027] (partner 0.5 µM)
In short: as §1

EKVX
relative viability (ALW-II-49-7 + Decitabine; first compound 0.08 µM): 0.513 | relative viability (ALW-II-49-7 + Decitabine; first compound 0.253 µM): 0.321 | relative viability (ALW-II-49-7 + Decitabine; first compound 0.8 µM): 0.327 | relative viability (ALW-II-49-7 + Decitabine; first compound 2.53 µM): 0.318 | relative viability (ALW-II-49-7 + Decitabine; first compound 8 µM): 0.408 | relative viability (ALW-II-49-7 + Trametinib; first compound 0.08 µM): 0.266 | relative viability (ALW-II-49-7 + Trametinib; first compound 0.253 µM): 0.347 | relative viability (ALW-II-49-7 + Trametinib; first compound 0.8 µM): 0.482 | relative viability (ALW-II-49-7 + Trametinib; first compound 2.53 µM): 0.317 | relative viability (ALW-II-49-7 + Trametinib; first compound 8 µM): 0.298 | relative viability (Dasatinib + Palbociclib; first compound 0.005 µM): 0.412 | relative viability (Dasatinib + Palbociclib; first compound 0.01581 µM): 0.319 | relative viability (Dasatinib + Palbociclib; first compound 0.05 µM): 0.332 | relative viability (Dasatinib + Palbociclib; first compound 0.1581 µM): 0.199 | relative viability (Dasatinib + Palbociclib; first compound 0.5 µM): 0.13 | relative viability (Dasatinib + OSI-027; first compound 0.005 µM): 0.66 | relative viability (Dasatinib + OSI-027; first compound 0.01581 µM): 0.508 | relative viability (Dasatinib + OSI-027; first compound 0.05 µM): 0.546 | relative viability (Dasatinib + OSI-027; first compound 0.1581 µM): 0.355 | relative viability (Dasatinib + OSI-027; first compound 0.5 µM): 0.123

EMC-BAC-2
relative viability (ALW-II-49-7 + Decitabine; first compound 0.08 µM): 1.01 | relative viability (ALW-II-49-7 + Decitabine; first compound 0.253 µM): 1.02 | relative viability (ALW-II-49-7 + Decitabine; first compound 0.8 µM): 0.982 | relative viability (ALW-II-49-7 + Decitabine; first compound 2.53 µM): 0.947 | relative viability (ALW-II-49-7 + Decitabine; first compound 8 µM): 0.907 | relative viability (ALW-II-49-7 + Trametinib; first compound 0.08 µM): 0.966 | relative viability (ALW-II-49-7 + Trametinib; first compound 0.253 µM): 0.92 | relative viability (ALW-II-49-7 + Trametinib; first compound 0.8 µM): 0.998 | relative viability (ALW-II-49-7 + Trametinib; first compound 2.53 µM): 0.857 | relative viability (ALW-II-49-7 + Trametinib; first compound 8 µM): 0.755 | relative viability (Dasatinib + Palbociclib; first compound 0.005 µM): 0.507 | relative viability (Dasatinib + Palbociclib; first compound 0.01581 µM): 0.424 | relative viability (Dasatinib + Palbociclib; first compound 0.05 µM): 0.417 | relative viability (Dasatinib + Palbociclib; first compound 0.1581 µM): 0.319 | relative viability (Dasatinib + Palbociclib; first compound 0.5 µM): 0.243 | relative viability (Dasatinib + OSI-027; first compound 0.005 µM): 0.315 | relative viability (Dasatinib + OSI-027; first compound 0.01581 µM): 0.264 | relative viability (Dasatinib + OSI-027; first compound 0.05 µM): 0.259 | relative viability (Dasatinib + OSI-027; first compound 0.1581 µM): 0.192 | relative viability (Dasatinib + OSI-027; first compound 0.5 µM): 0.152

EPLC-272H
relative viability (ALW-II-49-7 + Decitabine; first compound 0.08 µM): 0.326 | relative viability (ALW-II-49-7 + Decitabine; first compound 0.253 µM): 0.381 | relative viability (ALW-II-49-7 + Decitabine; first compound 0.8 µM): 0.329 | relative viability (ALW-II-49-7 + Decitabine; first compound 2.53 µM): 0.373 | relative viability (ALW-II-49-7 + Decitabine; first compound 8 µM): 0.295 | relative viability (ALW-II-49-7 + Trametinib; first compound 0.08 µM): 0.245 | relative viability (ALW-II-49-7 + Trametinib; first compound 0.253 µM): 0.27 | relative viability (ALW-II-49-7 + Trametinib; first compound 0.8 µM): 0.281 | relative viability (ALW-II-49-7 + Trametinib; first compound 2.53 µM): 0.305 | relative viability (ALW-II-49-7 + Trametinib; first compound 8 µM): 0.239 | relative viability (Dasatinib + Palbociclib; first compound 0.005 µM): 0.31 | relative viability (Dasatinib + Palbociclib; first compound 0.01581 µM): 0.327 | relative viability (Dasatinib + Palbociclib; first compound 0.05 µM): 0.314 | relative viability (Dasatinib + Palbociclib; first compound 0.1581 µM): 0.296 | relative viability (Dasatinib + Palbociclib; first compound 0.5 µM): 0.143 | relative viability (Dasatinib + OSI-027; first compound 0.005 µM): 0.33 | relative viability (Dasatinib + OSI-027; first compound 0.01581 µM): 0.338 | relative viability (Dasatinib + OSI-027; first compound 0.05 µM): 0.252 | relative viability (Dasatinib + OSI-027; first compound 0.1581 µM): 0.29 | relative viability (Dasatinib + OSI-027; first compound 0.5 µM): 0.091

H3255
relative viability (ALW-II-49-7 + Decitabine; first compound 0.08 µM): 0.611 | relative viability (ALW-II-49-7 + Decitabine; first compound 0.253 µM): 0.511 | relative viability (ALW-II-49-7 + Decitabine; first compound 0.8 µM): 0.662 | relative viability (ALW-II-49-7 + Decitabine; first compound 2.53 µM): 0.577 | relative viability (ALW-II-49-7 + Decitabine; first compound 8 µM): 0.425 | relative viability (ALW-II-49-7 + Trametinib; first compound 0.08 µM): 0.856 | relative viability (ALW-II-49-7 + Trametinib; first compound 0.253 µM): 0.52 | relative viability (ALW-II-49-7 + Trametinib; first compound 0.8 µM): 0.681 | relative viability (ALW-II-49-7 + Trametinib; first compound 2.53 µM): 0.62 | relative viability (ALW-II-49-7 + Trametinib; first compound 8 µM): 0.455 | relative viability (Dasatinib + Palbociclib; first compound 0.005 µM): 0.312 | relative viability (Dasatinib + Palbociclib; first compound 0.01581 µM): 0.333 | relative viability (Dasatinib + Palbociclib; first compound 0.05 µM): 0.329 | relative viability (Dasatinib + Palbociclib; first compound 0.1581 µM): 0.317 | relative viability (Dasatinib + Palbociclib; first compound 0.5 µM): 0.274 | relative viability (Dasatinib + OSI-027; first compound 0.005 µM): 0.639 | relative viability (Dasatinib + OSI-027; first compound 0.01581 µM): 0.484 | relative viability (Dasatinib + OSI-027; first compound 0.05 µM): 0.653 | relative viability (Dasatinib + OSI-027; first compound 0.1581 µM): 0.44 | relative viability (Dasatinib + OSI-027; first compound 0.5 µM): 0.274

HARA
relative viability (ALW-II-49-7 + Decitabine; first compound 0.08 µM): 0.689 | relative viability (ALW-II-49-7 + Decitabine; first compound 0.253 µM): 0.47 | relative viability (ALW-II-49-7 + Decitabine; first compound 0.8 µM): 0.497 | relative viability (ALW-II-49-7 + Decitabine; first compound 2.53 µM): 0.52 | relative viability (ALW-II-49-7 + Decitabine; first compound 8 µM): 0.663 | relative viability (ALW-II-49-7 + Trametinib; first compound 0.08 µM): 1.02 | relative viability (ALW-II-49-7 + Trametinib; first compound 0.253 µM): 0.513 | relative viability (ALW-II-49-7 + Trametinib; first compound 0.8 µM): 0.794 | relative viability (ALW-II-49-7 + Trametinib; first compound 2.53 µM): 0.64 | relative viability (ALW-II-49-7 + Trametinib; first compound 8 µM): 0.675 | relative viability (Dasatinib + Palbociclib; first compound 0.005 µM): 0.303 | relative viability (Dasatinib + Palbociclib; first compound 0.01581 µM): 0.243 | relative viability (Dasatinib + Palbociclib; first compound 0.05 µM): 0.155 | relative viability (Dasatinib + Palbociclib; first compound 0.1581 µM): 0.177 | relative viability (Dasatinib + Palbociclib; first compound 0.5 µM): 0.114 | relative viability (Dasatinib + OSI-027; first compound 0.005 µM): 0.339 | relative viability (Dasatinib + OSI-027; first compound 0.01581 µM): 0.4 | relative viability (Dasatinib + OSI-027; first compound 0.05 µM): 0.375 | relative viability (Dasatinib + OSI-027; first compound 0.1581 µM): 0.156 | relative viability (Dasatinib + OSI-027; first compound 0.5 µM): 0.0755

NCI-H596
relative viability (ALW-II-49-7 + Decitabine; first compound 0.08 µM): 0.884 | relative viability (ALW-II-49-7 + Decitabine; first compound 0.253 µM): 1.23 | relative viability (ALW-II-49-7 + Decitabine; first compound 0.8 µM): 1.1 | relative viability (ALW-II-49-7 + Decitabine; first compound 2.53 µM): 1.12 | relative viability (ALW-II-49-7 + Decitabine; first compound 8 µM): 1.05 | relative viability (ALW-II-49-7 + Trametinib; first compound 0.08 µM): 0.684 | relative viability (ALW-II-49-7 + Trametinib; first compound 0.253 µM): 0.786 | relative viability (ALW-II-49-7 + Trametinib; first compound 0.8 µM): 0.769 | relative viability (ALW-II-49-7 + Trametinib; first compound 2.53 µM): 0.791 | relative viability (ALW-II-49-7 + Trametinib; first compound 8 µM): 0.912 | relative viability (Dasatinib + OSI-027; first compound 0.005 µM): 0.656 | relative viability (Dasatinib + OSI-027; first compound 0.01581 µM): 0.632 | relative viability (Dasatinib + OSI-027; first compound 0.05 µM): 0.547 | relative viability (Dasatinib + OSI-027; first compound 0.1581 µM): 0.479 | relative viability (Dasatinib + OSI-027; first compound 0.5 µM): 0.306

NCI-H1563
relative viability (Dasatinib + OSI-027; first compound 0.005 µM): 0.702 | relative viability (Dasatinib + OSI-027; first compound 0.01581 µM): 0.691 | relative viability (Dasatinib + OSI-027; first compound 0.05 µM): 0.626 | relative viability (Dasatinib + OSI-027; first compound 0.1581 µM): 0.618 | relative viability (Dasatinib + OSI-027; first compound 0.5 µM): 0.541

NCI-H1623
relative viability (Dasatinib + OSI-027; first compound 0.005 µM): 0.423 | relative viability (Dasatinib + OSI-027; first compound 0.01581 µM): 0.393 | relative viability (Dasatinib + OSI-027; first compound 0.05 µM): 0.396 | relative viability (Dasatinib + OSI-027; first compound 0.1581 µM): 0.462 | relative viability (Dasatinib + OSI-027; first compound 0.5 µM): 0.339

NCI-H2228
relative viability (ALW-II-49-7 + Trametinib; first compound 0.08 µM): 0.413 | relative viability (ALW-II-49-7 + Trametinib; first compound 0.253 µM): 0.408 | relative viability (ALW-II-49-7 + Trametinib; first compound 0.8 µM): 0.406 | relative viability (ALW-II-49-7 + Trametinib; first compound 2.53 µM): 0.521 | relative viability (ALW-II-49-7 + Trametinib; first compound 8 µM): 0.373 | relative viability (Dasatinib + Palbociclib; first compound 0.005 µM): 0.73 | relative viability (Dasatinib + Palbociclib; first compound 0.01581 µM): 0.611 | relative viability (Dasatinib + Palbociclib; first compound 0.05 µM): 0.652 | relative viability (Dasatinib + Palbociclib; first compound 0.1581 µM): 0.364 | relative viability (Dasatinib + Palbociclib; first compound 0.5 µM): 0.367 | relative viability (Dasatinib + OSI-027; first compound 0.005 µM): 0.757 | relative viability (Dasatinib + OSI-027; first compound 0.01581 µM): 0.552 | relative viability (Dasatinib + OSI-027; first compound 0.05 µM): 0.522 | relative viability (Dasatinib + OSI-027; first compound 0.1581 µM): 0.31 | relative viability (Dasatinib + OSI-027; first compound 0.5 µM): 0.308
